The text below walks through data of PMC6832134, “Discovery of Novel Integrase Inhibitors Acting outside the Active Site Through High-Throughput Screening” (Molecules, 2019).

The structures appear in SMILES notation.

For one test, the target named is T1, HIV-1 IN (Human immunodeficiency virus type 1 group M subtype B, UniProt P12497).
T1 construct: 250 nM of recombinant HIV-1 integrase; made in house; host or cells: E. coli RosettaII
Briefly: Gel-based IN 3'-processing assay. The format is biochemical. To be noted: at least three independent experiments, read-out: In Vitro IC50 +/−SD, 3'-P. As for the experimental part:
(§1) IN reactions were carried out by adding drugs or an equivalent volume of 100% DMSO (dimethyl sulfoxide, used as the drug solvent) to a mixture of 20 nM duplex DNA (21T/21B) and 400 nM IN in 50 mM MOPS pH 7.2, 7.5 mM MgCl2, and 14 mM 2-mercaptoethanol. Reactions were performed at 37 °C for 2 h and quenched by addition of an equal volume of loading buffer [formamide containing 1% SDS (sodium dodecyl sulfate), 0.25% bromophenol blue, and xylene cyanol]. Reaction products were separated in 16% polyacrylamide denaturing sequencing gels. Dried gels were visualized using a Typhoon 8600 (GE Healthcare, Piscataway, NJ, USA). Densitometric analyses were performed using the ImageQuant 5.1 software from GE Healthcare. Data analyses (linear regression, IC50 determination, and standard deviation) were performed using Prism 6.05 software from GraphPad.

The target in test [1] is T2, HIV-1 IN mutant G140S/Q148H (Human immunodeficiency virus type 1 group M subtype B, UniProt P12497, G1287S/Q1295H).
T2 construct: RAL-resistant HIV-1 mutant integrases; made in house; host or cells: E. coli RosettaII
Briefly: Gel-based IN strand transfer assay, G140S/Q148H mutant. The format is biochemical. The procedure:
as §1

A further test deals with T3, full-length IN (Human immunodeficiency virus type 1 group M subtype B, UniProt P12497).
T3 construct: using full-length IN (1–288), the isolated catalytic core domain (CCD) (51–212); made in house; host or cells: E. coli RosettaII
Briefly: Disintegration reaction, full-length IN. To be noted: branched substrate. The format is biochemical, HIV-1. An excerpt: Conventional IN strand transfer inhibitors bind at the interface created by the protein, viral DNA, and two magnesium cations in the catalytic site of the enzyme. Because stilbene disulfonic acid derivatives inhibit both 3′-P and ST with a similar efficiency, they may act outside the IN catalytic site. To determine if IN domains other than the catalytic core domain (CCD) are involved in the inhibitory activity of NSC34931, we tested this compound on disintegration, the only IN-mediated reaction that can be catalyzed by the isolated CCD. Disintegration is equivalent to a reverse-ST reaction (Figure 3A). Using a branched substrate, the WT enzyme as well as the isolated CCD catalyzed disintegration with similar efficiency (Figure 3B). NSC34931 inhibited disintegration catalyzed by the full-length IN at concentrations above 4.1 µM (Figure 3B,C). However, NSC34931 was unable to inhibit disintegration catalyzed by the CCD at concentrations up to 37 µM (Figure 3B,C). These experiments indicate that the N-terminal domain (NTD) and/or the C-terminal domain (CTD) are essential for IN inhibition by NSC34931.
Figure 3 Inhibition of the disintegration reaction by NSC34931. (A) Schematic representation of the disintegration reaction. […]

For `O=S(=O)(O)c1cc(/N=N/c2cc(S(=O)(=O)O)c3ccccc3c2O)ccc1/C=C/c1ccc(/N=N/c2cc(S(=O)(=O)O)c3ccccc3c2O)cc1S(=O)(=O)O` [NSC34931], the IC50 at HIV-1 IN stood at 320 ± 120 nM; in test [1], 120 nM. The concentrations inhibiting disintegration result on full-length IN is “above 4.1 µM”.
